# From patent US20040147531A1, “Amidine derivatives for treating amyloidosis” (priority 2001, published 2004)
# What was measured:
# Parameters in all cases: key: “+” = active; “−” = inactive; “pr” = promoting
# Aβ [1] = target: T1, Aβ (Homo sapiens, UniProt P05067); test: circular dichroism (CD) assay, inhibition of fibrillogenesis; type: biochemical; conditions: soluble Aβ, 37° C., 190-240 nm
# T1 construct: Aβ peptide: Aβ (1-40) 95% purity (American Peptide Company, Inc, Sunnyvale, Calif. USA)
# Text: (§1) Test compounds were purchased from commercial sources or synthesized and screened by thioflavin T fluorescent assay (“ThT assay”). Alternatively, one could screen test compounds by circular dichroism (“CD”), electron microscopy (“EM”), or mass spectroscopy (“MS”) assays. The MS assay gives data on the ability of compounds to bind to an amyloid protein, whereas the ThT, EM, and CD assays give data on inhibition of fibrillogenesis.
# In the circular dichroism (“CD”) assay, samples were transferred to 0.1-cm path-length quartz cuvettes and CD scans were taken using a Jasco J-715 spectropolarimeter. Readings were taken at 37° C., between 190 and 240 nm, with a resolution of 0.1 nm and a bandwidth of 1 nm. […]
# Aβ40 = target: T2, Aβ40 (Homo sapiens, UniProt P05067); test: mass spectroscopy (MS) assay, binding to Aβ; conditions: 200 μM test compound, 20 μM solubilized Aβ40, pH 7.4; ability to bind to Aβ
# T2 construct: 200 μM of a test compound and 20 μM of solubilized Aβ40
# Method: Test compounds were purchased from commercial sources or synthesized and screened by thioflavin T fluorescent assay (“ThT assay”). Alternatively, one could screen test compounds by circular dichroism (“CD”), electron microscopy (“EM”), or mass spectroscopy (“MS”) assays.
# And in the mass spectroscopy (“MS”) assay, samples were prepared as aqueous solutions containing 20% ethanol, 200 μM of a test compound and 20 μM of solubilized Aβ40. The pH value of each sample was adjusted to 7.4 (±0.2) by addition of 0.1% aqueous sodium hydroxide. The solutions were then analyzed by electrospray ionization mass spectroscopy using a Waters ZQ 4000 mass spectrometer. Samples were introduced by direct infusion at a flow-rate of 25 μL/min within 2 hr. after sample preparation. The source temperature was kept at 70° C. and the cone voltage was 20 V for all the analysis. Data were processed using Masslynx 3.5 software.
# Aβ [2] = target: T1, Aβ; test: electron microscopy (EM) assay, inhibition of fibrillogenesis; type: biochemical; conditions: soluble Aβ
# Text: as §1
# Similarly, in the electron microscopy (“EM”) assay, each sample was sonicated for 1 min to disrupt large clumps before testing. The sample (5-μL aliquot) was placed on freshly cleaved mica and allowed to air dry. The mica was placed in a Balzers High-vacuum, Freeze-Etch Unit (model 301), shadowed with platinum (30° angle), and coated with a carbon film. The replica was removed from the mica by flotation and transferred onto a 300-mesh copper grid. Samples were examined using a Joel 2000 FX transmission electron microscope. […]
# T2 sequence (P05067 672-711 limits assumed): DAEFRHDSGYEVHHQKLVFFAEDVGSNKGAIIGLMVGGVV
# T1 sequence (P05067 672-711 limits assumed): as above
CD (Aβ [1]),MS Assay (Aβ40),EM (Aβ [2]),SMILES
+,+,+,CC(C)NC(=N)c1ccc(COc2cccc3c(OCc4ccc(C(=N)NC(C)C)cc4)cccc23)cc1 [Compound 61]
+,+,+,N=C(N)c1ccc(-c2ccc(-c3nc4ccccc4[nH]3)o2)cc1 [Compound 122]
,+,,N=C(N)c1ccc(OCCCCCOc2ccc(-c3nc4cc(C(=N)N)ccc4[nH]3)cc2)cc1 [Compound 94]
,−,,N=C(N)c1ccc(-c2cc(-c3cccc(C(=N)N)c3)on2)cc1 [Compound 82]
,+,,c1cc2c(cc1C1=NCCN1)c1cc(C3=NCCN3)ccc1n2CCCCCn1c2ccc(C3=NCCN3)cc2c2cc(C3=NCCN3)ccc21 [Compound 63]
,+,,N=C(N)c1ccc2[nH]c(Cc3nc4cc([N+](=O)[O-])ccc4[nH]3)nc2c1 [Compound 80]
,−,,N=C(N)c1cccc(OCc2ccccc2)c1 [Compound 68]
+,+,−,N=C(Nc1ccc(OCCCCCOc2ccc(NC(=N)c3ccccc3)cc2)cc1)c1ccccc1 [Compound 134]
−,+,+,COc1ccc(-c2ccc(-c3ccc(C(=N)N)cc3)o2)cc1 [Compound 117]
,+,,N=C(N)c1ccc2[nH]c(-c3ccc4c(=O)cc(-c5ccccc5)oc4c3)nc2c1 [Compound 119]
,+,,Cc1nc(-c2ccc(C(=N)N)cc2)cc(-c2ccc(C(=N)N)cc2)n1 [Compound 106]
,+,,N=C(N)c1ccc2nc(-c3ccc(CCc4ccc(F)cc4)cc3)[nH]c2c1 [Compound 126]
+,+,−,CC(C)NC(=N)c1cccc(COc2cccc3c(OCc4cccc(C(=N)NC(C)C)c4)cccc23)c1 [Compound 60]
,+,,N=C(N)c1ccc(OCCCCCCCCCBr)cc1 [Compound 43]
,+,,N=C(N)c1ccc(NC(=O)CC(=O)Nc2ccc(C(N)N)cc2)cc1 [Compound 98]
,+,,COc1ccc2c(c1)[nH]c1cc(C(=N)N)ccc12 [Compound 59]
,+,,N=C(N)c1cccc(OCCC(O)COc2cccc(C(=N)N)c2)c1 (centres unmarked) [Compound 79]
−,+,+,N=C(N)c1ccc2nc(-c3ccc(Cc4ccc(-c5nc6ccc(C(=N)N)cc6[nH]5)cc4)cc3)[nH]c2c1 [Compound 114]
,−,,Cc1cc(C(=N)N)ccc1-c1ccc(-c2ccc(C(=N)N)cc2C)o1 [Compound 118]
,+,,Cl.N=C(N)c1ccc(OCCCCCCCCC(=O)O)cc1 [Compound 45]

CD (Aβ [1]),MS Assay (Aβ40),EM (Aβ [2]),SMILES
,+,,Cn1c(-c2ccc(C(=N)N)cc2)ccc1-c1ccc(C(=N)N)cc1 [Compound 108]
,+,,N=C(Nc1ccc(-c2ccc(-c3ccc(NC(=N)c4ccccn4)cc3O)o2)c(O)c1)c1ccccn1 [Compound 136]
,+,,Cl.N=C(N)c1ccc(OCCCCCCCC(=O)O)cc1 [Compound 42]
,+,,CCCCNC(=N)c1ccc2nc(-c3ccc(CCc4ccc(-c5nc6ccc(C(=N)NCCCC)cc6[nH]5)cc4)cc3)[nH]c2c1 [Compound 89]
,+,,N=C(N)c1ccc(-c2ccc(-c3ccc(C(=N)N)cc3)o2)cc1 [Compound 99]
,+,,Cc1cc(C(=N)N)ccc1-c1ccc(-c2nc3ccc(C(=N)N)cc3[nH]2)o1 [Compound 131]
+,+,+,CC(C)c1ccc(OCc2ccc(C(=N)N)cc2)cc1 [Compound 70]
,+,,Cn1c(CCCCc2nc3cc(C(=N)N)ccc3n2C)nc2cc(C(=N)N)ccc21 [Compound 97]
,−,,N=C(N)c1ccc(COc2ccc([N+](=O)[O-])cc2)cc1 [Compound 67]
,+,,N=C(N)c1ccc(-c2ccc(-c3nc4cc(C(=N)N)ccc4o3)o2)cc1 [Compound 129]
,+,,CC(C)NC(=N)c1cccc(COc2ccc3ccc(OCc4cccc(C(=N)NC(C)C)c4)cc3c2)c1 [Compound 91]
−,+,+,N=C(N)c1ccc(-c2cc(-c3cccc(C(=N)N)c3)no2)cc1 [Compound 83]
,+,,CC(C)NC(=N)c1ccc(COc2ccc3ccc(OCc4ccc(C(=N)NC(C)C)cc4)cc3c2)cc1 [Compound 90]
,+,,N=C(N)c1cccc(COc2cccc3c(OCc4cccc(C(=N)N)c4)cccc23)c1 [Compound 77]
−,+,+,COc1cc(NC(=N)N)ccc1-c1ccc(-c2ccc(NC(=N)N)cc2OC)o1 [Compound 121]
,+,,COc1cc(C(=N)N)ccc1OC/C=C\COc1ccc(C(=N)N)cc1OC [Compound 86]
,+,,Cl.Cl.N=C(N)Nc1ccc(OCCCCCOc2ccc(NC(=N)N)cc2)cc1 [Compound 49]
−,+,+,CCc1ccc(CCc2ccc(-c3nc4ccc(C(=N)N)cc4[nH]3)cc2)cc1 [Compound 125]
,+,,N=C(N)c1ccc2nc(-c3ccc(-c4ccc(-c5nc6ccc(C(=N)N)cc6[nH]5)cc4)cc3)[nH]c2c1 [Compound 113]
−,+,+,N=C(N)c1ccc(OCCCCCCCCCCCCOc2ccc(C(=N)N)cc2Br)c(Br)c1 [Compound 76]

CD (Aβ [1]),MS Assay (Aβ40),EM (Aβ [2]),SMILES
,+,,N=C(N)c1ccc2[nH]c(-c3ccccc3)nc2c1 [Compound 81]
+,+,+,CC(C)NC(=N)c1ccc(OCc2ccc(COc3ccc(C(=N)NC(C)C)cc3)c3ccccc23)cc1 [Compound 62]
,+,,CCC(C)NC(=N)c1ccc(OCCCCCOc2cccc(C3=NC4C=C(C(=N)NC(C)C)C=CC4N3)c2)cc1.Cl.Cl.Cl (centres unmarked) [Compound 96]
,−,,N=C(N)c1ccc(-c2cc3ccc(C(=N)N)cc3[nH]2)cc1 [Compound 47]
,−,,COc1cc(C2=NCCN2)ccc1OCCCOc1ccc(C2=NCCN2)cc1OC [Compound 85]
,+,,N=C(N)c1ccc2nc(-c3ccc(-c4ccc([N+](=O)[O-])cc4)o3)[nH]c2c1 [Compound 111]
−,+,+,N=C(N)c1ccc2nc(-c3ccc(C4CC4c4ccc(-c5nc6ccc(C(=N)N)cc6[nH]5)cc4)cc3)[nH]c2c1 (centres unmarked) [Compound 115]
,−,,Cl.N=C(N)c1ccc(OCCCOc2ccc(CCC(=O)O)cc2)cc1 [Compound 40]
,+,,CC(C)NC(=N)c1ccc(-c2ccc(-c3ccc(C(=N)NC(C)C)cc3)o2)cc1 [Compound 100]
−,+,+,Cn1c(-c2nc3ccc(C(=N)N)cc3[nH]2)ccc1-c1nc2ccc(C(=N)N)cc2[nH]1 [Compound 103]
,+,,COC(=O)C(CCOc1ccc(C(=N)NO)cc1)CCOc1ccc(C(=N)NO)cc1 (centres unmarked) [Compound 95]
,+,,c1cc2[nH]c(-c3ccc4[nH]c(CCc5nc6cc(-c7nc8cc(C9=NCCN9)ccc8[nH]7)ccc6[nH]5)nc4c3)nc2cc1C1=NCCN1 [Compound 87]
,+,,Cl.Cl.N=C(N)Cc1ccc(OCCCCCOc2ccc(CC(=N)N)cc2)cc1 [Compound 48]
,+,,N=C(N)c1ccc2nc(-c3ccc4cc(-c5nc6ccc(C(=N)N)cc6[nH]5)ccc4c3)[nH]c2c1 [Compound 110]
,+,,CC(=N)Nc1ccc(-c2ccc(-c3ccc(NC(C)=N)cc3C)o2)c(C)c1 [Compound 135]
−,+,+,COc1ccc(-c2ccc(-c3ccc(NC(=N)N)cc3)o2)cc1 [Compound 123]
,+,,Cc1c(-c2ccc(C(=N)N)cc2)oc(-c2ccc(C(=N)N)cc2)c1C [Compound 57]
,+,,Cc1cc(-c2nc3cc(C(=N)N)ccc3[nH]2)c(C)cc1-c1nc2cc(C(=N)N)ccc2[nH]1 [Compound 73]

SMILES,CD (Aβ [1]),MS Assay (Aβ40),EM (Aβ [2])
Br.N=C(N)c1ccc(OCCCCCCCCBr)cc1 [Compound 44],,+,
N=C(N)c1ccc(-c2coc(-c3ccc(C(=N)N)cc3)c2)cc1 [Compound 120],−,+,+
